Source: ChEMBL document CHEMBL3885861, “Open TG-GATES”

Species on record: Rattus norvegicus
Experiment: Open TG-GATES - Regimen: Single
Type: toxicity, organism-based, Sprague-Dawley
Design: regimen Single, gender Male, age 6 weeks
Conditions: in vivo, po, 0 mg/kg, route gavage, dose level Control; for APTT / Bas / Eos / Fbg / Hb / Ht / Lym / MCH / MCHC / MCV / Mono / Neu / PT / Plat / RBC / Ret / WBC: tissue Blood; for KIDNEY_L / KIDNEY_R / KIDNEY_TOTAL: tissue Kidney; for LIVER: tissue Liver; for A/G / ALP / ALT / AST / BUN / CRE / Ca / Cl / DBIL / GLC / IP / LDH / Na / PL / RALB / TBIL / TC / TG / TP / gamma-GTP: tissue Plasma

NC(N)=Nc1nc(CSCCC(N)=NS(N)(=O)=O)cs1 [FAMOTIDINE]
TERMINAL_BW (3 h): 217.3 g
APTT (3 h): 20.1 s
Bas (3 h): 0%
Eos (3 h): 1%
Fbg (3 h): 209.8 mg/dL
Hb (3 h): 13.2 g/dL
Ht (3 h): 37.2%
Lym (3 h): 64.8%
MCH (3 h): 22.3 pg
MCHC (3 h): 35.5%
MCV (3 h): 62.6 fL
Mono (3 h): 3.8%
Neu (3 h): 26.8%
PT (3 h): 12.5 s
Plat (3 h): 110.5 x10_4/uL
RBC (3 h): 593.6 x10_4/ul
Ret (3 h): 8.2%
WBC (3 h): 81.2 x10_2/uL
KIDNEY_L (3 h): 1 g
KIDNEY_R (3 h): 1 g
KIDNEY_TOTAL (3 h): 1.9 g
LIVER (3 h): 10.4 g
A/G (3 h): 1.7
ALP (3 h): 809.6 IU/L
ALT (3 h): 39 IU/L
AST (3 h): 71 IU/L
BUN (3 h): 10.8 mg/dL
CRE (3 h): 0.4 mg/dL
Ca (3 h): 10.8 mg/dL
Cl (3 h): 103.2 meq/L
DBIL (3 h): 0.078 mg/dL
GLC (3 h): 197.2 mg/dL
IP (3 h): 9.1 mg/dL
LDH (3 h): 196.4 IU/L
Na (3 h): 140.8 meq/L
PL (3 h): 139 mg/dL
RALB (3 h): 3.4 g/dL
TBIL (3 h): 0.1 mg/dL
TC (3 h): 77.4 mg/dL
TG (3 h): 55.8 mg/dL
TP (3 h): 5.4 g/dL
gamma-GTP (3 h): 1.4 IU/L
TERMINAL_BW (6 h): 212.9 g
APTT (6 h): 20 s
Bas (6 h): 0%
Eos (6 h): 0.8%
Fbg (6 h): 218.6 mg/dL
Hb (6 h): 13.4 g/dL
Ht (6 h): 37.6%
Lym (6 h): 79.4%
MCH (6 h): 22 pg
MCHC (6 h): 35.7%
MCV (6 h): 61.7 fL
Mono (6 h): 2.4%
Neu (6 h): 15.2%
PT (6 h): 12.4 s
Plat (6 h): 119.6 x10_4/uL
RBC (6 h): 610.2 x10_4/ul
Ret (6 h): 6.9%
WBC (6 h): 94.2 x10_2/uL
KIDNEY_L (6 h): 1 g
KIDNEY_R (6 h): 1 g
KIDNEY_TOTAL (6 h): 2 g
LIVER (6 h): 9.3 g
A/G (6 h): 1.5
ALP (6 h): 928.8 IU/L
ALT (6 h): 32.6 IU/L
AST (6 h): 64.2 IU/L
BUN (6 h): 9.2 mg/dL
CRE (6 h): 0.4 mg/dL
Ca (6 h): 10.7 mg/dL
Cl (6 h): 102.6 meq/L
DBIL (6 h): 0.068 mg/dL
GLC (6 h): 193.8 mg/dL
IP (6 h): 9 mg/dL
LDH (6 h): 193.6 IU/L
Na (6 h): 140 meq/L
PL (6 h): 142.8 mg/dL
RALB (6 h): 3.3 g/dL
TBIL (6 h): 0.1 mg/dL
TC (6 h): 80.6 mg/dL
TG (6 h): 60 mg/dL
TP (6 h): 5.5 g/dL
gamma-GTP (6 h): 1 IU/L
TERMINAL_BW (9 h): 209.9 g
APTT (9 h): 19.9 s
Bas (9 h): 0%
Eos (9 h): 1%
Fbg (9 h): 228.2 mg/dL
Hb (9 h): 13.3 g/dL
Ht (9 h): 36.7%
Lym (9 h): 65.4%
MCH (9 h): 22.9 pg
MCHC (9 h): 36.2%
MCV (9 h): 63.3 fL
Mono (9 h): 2.4%
Neu (9 h): 29%
PT (9 h): 12.7 s
Plat (9 h): 118.2 x10_4/uL
RBC (9 h): 580.8 x10_4/ul
Ret (9 h): 7.5%
WBC (9 h): 106.4 x10_2/uL
KIDNEY_L (9 h): 1 g
KIDNEY_R (9 h): 1 g
KIDNEY_TOTAL (9 h): 2 g
LIVER (9 h): 9.1 g
A/G (9 h): 1.5
ALP (9 h): 883.2 IU/L
ALT (9 h): 28.4 IU/L
AST (9 h): 56.8 IU/L
BUN (9 h): 8.8 mg/dL
CRE (9 h): 0.3 mg/dL
Ca (9 h): 10.4 mg/dL
Cl (9 h): 102.8 meq/L
DBIL (9 h): 0.056 mg/dL
GLC (9 h): 205.2 mg/dL
IP (9 h): 9.4 mg/dL
LDH (9 h): 138.6 IU/L
Na (9 h): 140 meq/L
PL (9 h): 133.8 mg/dL
RALB (9 h): 3.2 g/dL
TBIL (9 h): 0.1 mg/dL
TC (9 h): 70.6 mg/dL
TG (9 h): 46.6 mg/dL
TP (9 h): 5.4 g/dL
gamma-GTP (9 h): 0.8 IU/L
TERMINAL_BW (24 h): 226.6 g
APTT (24 h): 19.6 s
Bas (24 h): 0%
Eos (24 h): 1%
Fbg (24 h): 232.4 mg/dL
Hb (24 h): 13.3 g/dL
Ht (24 h): 37.3%
Lym (24 h): 78.4%
MCH (24 h): 22.5 pg
MCHC (24 h): 35.7%
MCV (24 h): 63.2 fL
Mono (24 h): 2.8%
Neu (24 h): 15.8%
PT (24 h): 11.9 s
Plat (24 h): 126.9 x10_4/uL
RBC (24 h): 590 x10_4/ul
Ret (24 h): 6.6%
WBC (24 h): 84.4 x10_2/uL
KIDNEY_L (24 h): 1.1 g
KIDNEY_R (24 h): 1.1 g
KIDNEY_TOTAL (24 h): 2.1 g
LIVER (24 h): 11 g
A/G (24 h): 1.5
ALP (24 h): 1002.2 IU/L
ALT (24 h): 34.2 IU/L
AST (24 h): 65.4 IU/L
BUN (24 h): 13.4 mg/dL
CRE (24 h): 0.4 mg/dL
Ca (24 h): 10.7 mg/dL
Cl (24 h): 102.6 meq/L
DBIL (24 h): 0.088 mg/dL
GLC (24 h): 186.4 mg/dL
IP (24 h): 7.3 mg/dL
LDH (24 h): 203.2 IU/L
Na (24 h): 139.4 meq/L
PL (24 h): 147.2 mg/dL
RALB (24 h): 3.4 g/dL
TBIL (24 h): 0.1 mg/dL
TC (24 h): 81.8 mg/dL
TG (24 h): 85.6 mg/dL
TP (24 h): 5.7 g/dL
gamma-GTP (24 h): 1 IU/L
